≈ marks a conversion by molar mass, not a printed value. Where a SMILES comes first, the peptide text is derived from it. [ ]: non-standard residue; d: D form. The star is where a group is joined. Orn(α-tetramethylguanidino) = CN(C)C(=N[C@@H](CCCN)C(=O)*)N(C)C; Orn = NCCC[C@H](N)C(=O)O
Key:
in vitro = type: cell-based, human; conditions: human
Method: (§1) Human embryonic kidney (HEK293) and HeLa cells were cultured in Dulbecco's modified Eagle's/Ham's F-12 medium [DMEM/F-12 (1:1)] supplemented with FBS (10% v/v), penicillin, and streptomycin (1000 units each). Primary rat cardiomyocytes (Innoprot, Elexalde Derio, Spain) were grown in medium supplemented with FBS (20% v/v), horse serum (5% v/v), L-glutamine (2 mmol/L), sodium pyruvate (2 mmol/L), MEM non-essential amino acids (Gibco, 0.1 mmol/L), penicillin, and streptomycin (1000 units each). Surfaces for cardiomyocyte growth were coated with attachment factor first. Cells (20,000/well) were seeded into a 96-well plate (PS, sterile, flat bottom), incubated for 24 h (37°C, 5% CO2), and washed twice with PBS (100 μl/well) prior to adding colorless medium (88 μL) and peptide solution (12 μL; 5, 2.5, 1.25, […], and 0.625 g/L in PBS). Positive controls were triton X-100 (1%, v/v) and melittin (60 mg/L) as lytic peptide, whereas PBS (12%, v/v) served as negative control. After an incubation period of 24 h, supernatant (25 μL) was mixed with lactate dehydrogenase (LDH) substrate (175 μL; 0.57 mmol/L sodium pyruvate, 0.24 mmol/L NADH disodium salt, 32 mmol/L potassium dihydrogen phosphate, 66 mmol/L dipotassium phosphate) in 96-well plates (PS, sterile, flat bottom). Absorbance was recorded at 340 nm every 3 min for 30 min on the Paradigm microplate reader. Due to the total release of LDH upon triton X-100 treatment, the control contained high LDH concentrations resulting in a fast substrate turnover that was only linear for the first 6 min.
(§2) The MTT cell viability assay relied on the same cell culture. Remaining medium was replaced by a mixture of fresh colorless medium (100 μL) and MTT (10 μL; 5 g/L in PBS) and incubated for 4 h (37°C, 5% CO2). A solution of sodium dodecyl sulfate (100 μL; 10%, w/v) dissolved in hydrochloric acid (10 mmol/L) was added, incubated (16 h), and the absorbance recorded at 590 nm relative to the reference at 650 nm (Paradigm microplate reader). The relative cell viability was calculated by [(ODPeptide − ODTriton)/(ODPBS − ODTriton)] × 100% and half-maximal inhibitory concentrations (IC50) with an Excel-template from cell biology protocols (www.sciencegateway.org/ protocols/cellbio/drug/hcic50.htm). For statistical analysis an unpaired t-test was applied using GraphPad Prism 5.0.

P. aeruginosa elastase = target: T1, P. aeruginosa elastase (Pseudomonas aeruginosa, UniProt P14756); test: Elastase assay (proteolytic stability); type: in vitro ADME; conditions: elastase 12 units/mL, pH 8.3, 37°C
T1 construct: purchased Merck (Darmstadt, Germany)
T1 sequence (P14756 198-498): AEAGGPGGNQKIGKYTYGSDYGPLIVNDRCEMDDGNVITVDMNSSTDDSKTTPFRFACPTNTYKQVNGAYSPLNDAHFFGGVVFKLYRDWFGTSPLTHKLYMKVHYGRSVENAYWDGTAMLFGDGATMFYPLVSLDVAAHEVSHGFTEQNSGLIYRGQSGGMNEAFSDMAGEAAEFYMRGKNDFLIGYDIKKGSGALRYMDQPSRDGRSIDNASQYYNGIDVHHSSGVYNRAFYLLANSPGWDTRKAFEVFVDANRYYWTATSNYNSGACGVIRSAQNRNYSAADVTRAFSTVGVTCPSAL
Method: A stock solution of P. aeruginosa elastase (0.26 U/μL) was prepared in Tris-HCl (5 mmol/L, pH 8.3) and stored at −80°C. Peptides (0.5 g/L in 5 mmol/L Tris-HCl, pH 8.3) were incubated with elastase (0.012 U/μL) at 37°C under constant shaking (450 rpm) for 0, 0.5, 2, 4, and 6 h. Aliquots (10.5 μL) were precipitated with a mixture of acetonitrile and ethanol (1:1 v/v) containing 0.1% TFA (21 μL), centrifuged, the supernatant transferred into a new tube, and dried in vacuum. Samples were dissolved in aqueous acetonitrile (3% v/v) containing TFA (0.1% v/v) and analyzed by RP-HPLC using the conditions described above.

[1] = Quartz crystal microbalance, membrane interaction; type: binding
Method: Data were acquired with the Q-Sense E4 system (Q-sense, Sweden using polished, gold-coated, AT-cut quartz sensors with a fundamental frequency of ca. 5 MHz (Q-Sense, Västra Frölunda, Sweden) (Mechler et al., [2007]; McCubbin et al., [2011]). Briefly, sensors were cleaned with hydrogen peroxide (6% w/v) and aqueous ammonia (5.6% w/v) for 20 min (70–75°C), washed with water, and then activated with 3-mercaptopropionic acid (1 mmol/L in isopropanol) overnight. Liposomes consisting of DMPC and DMPG (molar ratio of 4:1) were deposited onto the sensors, washed with “high salt” PBS (20 mmol/L potassium phosphate, 0.1 mol/L NaCl, pH 6.9) and then with “low salt” PBS (10 mmol/L potassium phosphate, 30 mmol/L NaCl, pH 6.9). The system was equilibrated at 19.1 ± 0.1°C with “high salt” PBS, prior to the introduction of peptide solutions (2; 5; 10 and 20 μmol/L, 1 mL each in “high salt” PBS) at a flow rate of 50 μL/min over 20 min followed by an incubation, without any flow. Afterwards the “high salt” PBS was again introduced at 300 μL/min to determine if any surface materials could be removed from the sensor. Changes in the sensor frequency (Δf) and dissipation (ΔD) were monitored for the third, fifth, seventh, and ninth harmonic using Q-Soft (Q-Sense) and analyzed using Origin 8 software.

HEK293 cells = test: in vitro; type: cell-based, human; conditions: 24 h
Method: as §1, §2

HeLa cells [2] = test: in vitro; type: cell-based; conditions: 24 h
Method: as §1, §2

HeLa cells [3] = test: Flow cytometry, endocytosis inhibition with dynasore; type: cell-based; conditions: dynasore 0.2 mmol/L 45 min, peptide 40 μmol/L 30 min
Method: Fresh colorless medium (150 μL) supplemented with either dynasore (0.2 mmol/L) dissolved in DMSO (final concentration of 0.2% v/v) or DMSO (0.2% v/v) as vehicle control was added. After 45 min (37°C) the supernatant was replaced by fresh medium supplemented with either dynasore or DMSO at the same concentrations (144 μL), Cf-labeled peptide added (6 μL, 1 mmol/L in water), and incubated (30 min, 37°C). Cells were fixed and stained with Hoechst 33342 as described above.
HeLa cells (50,000 for endocytosis inhibition and 70,000 for uptake kinetics) suspended in DMEM/F-12 medium (300 μL; see above) were seeded into 48-well plates (PS, sterile, flat bottom) and incubated (23 ± 1 h) using the conditions described above. Cells were washed twice with PBS (300 μL/well) and fresh medium was added (144 μL).
Cell cultures were prepared and incubated in the presence of dynasore, as described for microscopy. Cells were washed, treated with trypsin, and fixed as described above, dissolved in FACS buffer, and analyzed the same day.

Structure (SMILES): CC[C@H](C)[C@H](NC(=O)[C@H](Cc1ccc(O)cc1)NC(=O)[C@@H](NC(=O)[C@@H]1CCCN1C(=O)[C@H](CCCNC(=N)N)NC(=O)[C@H](CC(N)=O)NC(=O)[C@H](CC(N)=O)NC(=O)[C@H](CCCN)N=C(N(C)C)N(C)C)C(C)C)C(=O)N1CCC[C@H]1C(=O)N[C@@H](CCCNC(=N)N)C(=O)N1CCC[C@H]1C(=O)N[C@@H](CCCNC(=N)N)C(=O)N1CCC[C@H]1C(=O)N1CCC[C@H]1C(=O)N[C@@H](Cc1c[nH]cn1)C(=O)N1CCC[C@H]1C(=O)N[C@@H](CCCNC(=N)N)C(=O)N[C@@H](CC(C)C)C(=O)O [Api137, gu-ONNRPVYIPRPRPPHPRL-OH, reference compound] ({Orn(α-tetramethylguanidino)}-NNRPVYIPRPRPPHPRL-OH)
- viability at 24 h, 0.6 g/L (in vitro): 83 ± 3%
- Peptide remaining with elastase (P. aeruginosa elastase; after 6 h): fully recovered
- QCM change in dissipation (ΔD) ([1]; 2-20 μmol/L, incubation period ii): No change
- QCM frequency loss upon washing with PBS buffer ([1]; period iii, DMPC:DMPG 4:1): ~ 2 Hz

Structure (SMILES): CC[C@H](C)[C@H](NC(=O)[C@H](CCCN)N=C(N(C)C)N(C)C)C(=O)N[C@@H](CCCN)C(=O)N[C@H](C(=O)N[C@@H](CCCN)C(=O)N[C@@H](CCCNC(=N)N)C(=O)N1CCC[C@H]1C(=O)N[C@H](C(=O)N[C@@H](Cc1ccc(O)cc1)C(=O)N[C@@H](CCCN)C(=O)N1CCC[C@H]1C(=O)N[C@@H](CCCNC(=N)N)C(=O)N1CCC[C@H]1C(=O)N[C@@H](CCCNC(=N)N)C(=O)N1CCC[C@H]1C(=O)N1CCC[C@H]1C(=O)N[C@@H](Cc1c[nH]cn1)C(=O)N1CCC[C@H]1C(=O)N[C@@H](CCCNC(=N)N)C(=O)N[C@@H](CC(C)C)C(=O)O)C(C)C)[C@@H](C)CC [Api795, gu-O(IO)2RPVYOPRPRPPHPRL-OH] ({Orn(α-tetramethylguanidino)}-I[Orn]I[Orn]RPVY[Orn]PRPRPPHPRL-OH)
- IC50 on cell viability (HEK293 cells): >600 µg/mL
- viability at 24 h, 0.6 g/L (in vitro): ~60%
- Peptide detected with elastase (P. aeruginosa elastase; after 30 min and all later time points): 92 ± 4%
- IC50 on cell viability (HeLa cells [2]): >600 µg/mL
- QCM Δf (peptide insertion) ([1]; 2 μmol/L, DMPC:DMPG 4:1): 9 Hz
- QCM Δf (peptide insertion) ([1]; 5, 10, and 20 μmol/L, DMPC:DMPG 4:1): 6 Hz
- Drop of GeoMean fluorescence (uptake) in the presence of dynasore vs vehicle control (HeLa cells [3]): 80%

Structure (SMILES): CC(C)C[C@H](NC(=O)[C@H](CCCNC(=N)N)NC(=O)[C@@H]1CCCN1C(=O)[C@H](Cc1c[nH]cn1)NC(=O)[C@@H]1CCCN1C(=O)[C@@H]1CCCN1C(=O)[C@H](CCCNC(=N)N)NC(=O)[C@@H]1CCCN1C(=O)[C@H](CCCNC(=N)N)NC(=O)[C@@H]1CCCN1C(=O)[C@H](CCCN)NC(=O)[C@H](Cc1ccc(O)cc1)NC(=O)[C@@H](NC(=O)[C@@H]1CCCN1C(=O)[C@H](CCCNC(=N)N)NC(=O)[C@H](CCCN)NC(=O)[C@H](Cc1c[nH]c2ccccc12)NC(=O)[C@H](CCCN)NC(=O)[C@H](Cc1c[nH]c2ccccc12)NC(=O)[C@H](CCCN)NC(=O)[C@H](Cc1c[nH]c2ccccc12)NC(=O)[C@H](CCCN)N=C(N(C)C)N(C)C)C(C)C)C(=O)O [Api794, gu-O(WO)3RPVYOPRPRPPHPRL-OH] ({Orn(α-tetramethylguanidino)}-W[Orn]W[Orn]W[Orn]RPVY[Orn]PRPRPPHPRL-OH)
- IC50 on cell viability (HEK293 cells): 280 ± 30 µg/mL (≈ 94.4 µM)
- remaining at 6 h, 0.5 g/L (P. aeruginosa elastase; Pseudomonas aeruginosa, isolated enzyme elastase, after 6 h, read-out: Peptide remaining with elastase): 79 ± 6%
- IC50 on cell viability (HeLa cells [2]): 230 ± 90 µg/mL (≈ 77.6 µM)
- Drop of GeoMean fluorescence (uptake) in the presence of dynasore vs vehicle control (HeLa cells [3]): 50%

— publication PMC4861708 (Frontiers in Cell and Developmental Biology, 2016)
